Where two headings read alike, the source gives them in different places.
How the values were obtained:
SARS-CoV-2 [1] = settings: read-out: antiviral EC50; cited from earlier work
SARS-CoV-2 [2] = settings: read-out: antiviral EC50, primary CPE assay, cited from earlier work
SARS-CoV-2 [3] = settings: read-out: antiviral EC50; genomic RNA quantification; cited from earlier work
SARS-CoV-2 M^Pro = SARS-CoV-2 M^Pro (Severe acute respiratory syndrome coronavirus 2, UniProt P0DTD1); format: biochemical; settings: at 16 μM inhibitor

CC(C)(C)NC(=O)N[C@H](C(=O)N1C[C@H]2[C@@H]([C@H]1C(=O)NC(CC1CCC1)C(=O)C(N)=O)C2(C)C)C(C)(C)C (some centres unmarked) [boceprevir]
EC50 (SARS-CoV-2 [1]): 15600 nM | EC50 (SARS-CoV-2 [2]): 1310 ± 580 nM

CC(C)COCC(CN(Cc1ccccc1)c1ccccc1)N1CCCC1 (centres unmarked) [bepridil]
EC50 (SARS-CoV-2 [2]; ACE2+ A549 cells): 460 nM

CCCCCCNC(=O)n1cc(F)c(=O)[nH]c1=O [carmofur]
EC50 (SARS-CoV-2 [3]): > 100000 nM

CCN(CC)CCCC(C)Nc1ccnc2cc(Cl)ccc12 (centres unmarked) [chloroquine]
M^Pro retained activity (SARS-CoV-2 M^Pro): 84%

Source: article PMC8848508 (ACS Central Science, 2022)
